The record followed here is PMC7366829 (Acta biomaterialia, 2020).

The structures appear in SMILES notation.

One assay addresses MelBEc (Escherichia coli, UniProt P02921). Description: Trp to D2G FRET. The conditions noted are these: 10 μM D2G; 23 °C; GNG-3,14 extract; active site. It counts as binding.
The target in a further assay is MelBSt (Salmonella enterica, UniProt P30878). As to the kind of experiment: Trp to D2G FRET. The assay is classed as binding. The conditions noted are these: 10 μM D2G; 23 °C; DDM or GNG-3,14 extract; active site.
Another assay deals with β2AR (Homo sapiens, UniProt P07550). As to the kind of experiment: radioligand binding, G-50 column. Particulars: 10 nM [3H]-DHA; pH 7.5; 100 mM NaCl; room temperature; antagonist; labelled compound.
Chain of β2AR (P07550 whole entry): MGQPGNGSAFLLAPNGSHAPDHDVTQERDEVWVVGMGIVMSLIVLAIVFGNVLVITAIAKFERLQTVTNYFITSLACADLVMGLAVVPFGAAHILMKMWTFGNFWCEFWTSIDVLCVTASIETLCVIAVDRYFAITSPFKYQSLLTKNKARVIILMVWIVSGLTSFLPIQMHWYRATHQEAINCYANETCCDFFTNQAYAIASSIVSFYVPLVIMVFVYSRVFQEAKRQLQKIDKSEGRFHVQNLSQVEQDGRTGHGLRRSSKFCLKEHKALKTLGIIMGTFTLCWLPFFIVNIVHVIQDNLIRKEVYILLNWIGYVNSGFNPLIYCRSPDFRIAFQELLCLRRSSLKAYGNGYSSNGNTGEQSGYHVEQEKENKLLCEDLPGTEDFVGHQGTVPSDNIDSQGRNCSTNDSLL

Chain of MelBSt (P30878 whole entry): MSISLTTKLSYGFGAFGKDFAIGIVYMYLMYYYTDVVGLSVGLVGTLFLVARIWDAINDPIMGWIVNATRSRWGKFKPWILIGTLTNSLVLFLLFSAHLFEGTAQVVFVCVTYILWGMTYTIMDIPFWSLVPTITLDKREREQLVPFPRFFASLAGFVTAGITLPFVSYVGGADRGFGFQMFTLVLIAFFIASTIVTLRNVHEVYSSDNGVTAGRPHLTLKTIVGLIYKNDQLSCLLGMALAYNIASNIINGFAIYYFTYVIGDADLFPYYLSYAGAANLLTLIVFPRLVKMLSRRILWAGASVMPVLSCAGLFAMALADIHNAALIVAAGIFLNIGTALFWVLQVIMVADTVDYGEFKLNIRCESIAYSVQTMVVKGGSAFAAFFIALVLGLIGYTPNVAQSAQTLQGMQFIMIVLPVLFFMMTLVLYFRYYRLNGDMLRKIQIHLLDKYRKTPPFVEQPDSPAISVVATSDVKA
Chain of MelBEc (P02921 2-473): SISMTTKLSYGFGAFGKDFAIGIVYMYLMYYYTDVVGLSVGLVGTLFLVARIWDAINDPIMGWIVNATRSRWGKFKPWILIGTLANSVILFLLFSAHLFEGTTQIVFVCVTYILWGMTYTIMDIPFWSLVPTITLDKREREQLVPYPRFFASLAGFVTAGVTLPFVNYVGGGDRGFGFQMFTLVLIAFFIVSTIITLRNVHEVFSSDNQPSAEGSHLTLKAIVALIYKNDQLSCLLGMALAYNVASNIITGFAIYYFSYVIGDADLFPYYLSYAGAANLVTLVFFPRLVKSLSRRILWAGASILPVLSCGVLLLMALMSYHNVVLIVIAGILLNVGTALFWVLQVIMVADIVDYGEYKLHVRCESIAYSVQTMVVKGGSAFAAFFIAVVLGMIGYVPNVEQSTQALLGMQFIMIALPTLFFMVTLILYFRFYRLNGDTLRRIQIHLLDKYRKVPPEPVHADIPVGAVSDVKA

`CN(C)c1cccc2c(S(=O)(=O)NCCS[C@@H]3O[C@H](CO)[C@H](O)[C@H](O)[C@H]3O)cccc12` [D2G, 2’-(N-Dansyl)aminoalkyl-1-thio-β-D-galactopyranoside]: the “Trp to D2G FRET” value on MelBEc was “GNG-3,14-extracted MelBEc was functional under the same conditions”; at MelBSt, “DDM or GNG-3,14-extracted MelBSt responded to addition of D^2G and melibiose”. Turning to `CCCc1ccccc1OCC(O)CNC(C)C` (stereo not drawn) [[3H]-dihydroalprenolol], the “radioligand binding, G-50 column” value at β2AR is “ligand binding assay using a radio-active antagonist ([^3H]-DHA)”.
